According to patent publication US20230094922A1, “METHODS OF THERAPEUTIC PROGNOSTICATION” (GENETIKAPLUS LTD., priority 2020, published 2023):

Test system: iPSC-derived cortical neurons
Assay type: cell-based
Settings: responders vs non-responders after 10 μM Bupropion

CC(NC(C)(C)C)C(=O)c1cccc(Cl)c1 (stereo not drawn) [Bupropion, 3-Chloro-N-tert-butyl-β-keto-α-methylphenethylamin]
logFC PARP6 (NS): −0.681
logFC PCBP4 (NS): −1.293
logFC PCDH10 (NS): −1.015
logFC PCSK1N (NS): −1.46
logFC PDYN (NS): −1.613
logFC PGM2L1 (NS): −1.008
logFC PHACTR3 (NS): −1.439
logFC PID1 (NS): −1.455
logFC PIK3R1 (NS): −0.9783
logFC PITPNC1 (NS): −0.8298
logFC PITPNM2 (NS): −0.7259
logFC PKIA (NS): −1.194
logFC PLPPR2 (NS): −0.974
logFC PNMA3 (NS): −1.221
logFC PPEF1 (NS): −1.59
logFC PPFIA2 (NS): −1.898
logFC PPFIA3 (NS): −0.735
logFC PPM1K (NS): −0.7077
logFC PPP1R13B (NS): −1.191
logFC PPP2R2B (NS): −1.116
logFC PPP2R2C (NS): −1.735
logFC PPP2R5B (NS): −1.051
logFC PRDM8 (NS): −2.418
logFC PSD (NS): −1.027
logFC PSD2 (NS): −1.447
logFC PTPRH (NS): −1.255
logFC PTPRN2 (NS): −1.272
logFC PTPRR (NS): −1.517
logFC RAB3A (NS): −1.354
logFC RAB3C (NS): −1.236
logFC RAB6B (NS): −1.225
logFC RAB33A (NS): −1.51
logFC RAP1GAP (NS): −0.7191
logFC RASGEF1B (NS): −1.168
logFC RBFOX1 (NS): −1.576
logFC RBFOX3 (NS): −1.575
logFC RBP4 (NS): −2.21
logFC RCAN2 (NS): −1.602
logFC REM2 (NS): −1.186
logFC RETREG2 (NS): −0.5717
logFC RGR (NS): −2.072
logFC RGS7 (NS): −1.689
logFC RHBDL3 (NS): −1.325
logFC RHOBTB2 (NS): −0.7317
logFC RIMS1 (NS): −1.83
logFC RIT2 (NS): −2.318
logFC RNF152 (NS): −1.135
logFC RNF165 (NS): −0.9556
logFC RPS6KA2 (NS): −0.8831
logFC RTN1 (NS): −1.456
logFC RUFY3 (NS): −0.7072
logFC RUNDC3B (NS): −1.512
logFC RUNX1T1 (NS): −1.916
logFC RXRG (NS): −1.776
logFC SAMD14 (NS): −1.111
logFC SARM1 (NS): −1.209
logFC SCAPER (NS): −0.7606
logFC SCG2 (NS): −1.691
logFC SCG3 (NS): −1.431
logFC SCN1A (NS): −1.947
logFC SCN2A (NS): −1.841
logFC SCN3B (NS): −1.722
logFC SCN7A (NS): −1.457
logFC SCN9A (NS): −1.803
logFC SEPTIN3 (NS): −1.333
logFC SERP2 (NS): −1.449
logFC SEZ6L (NS): −1.45
logFC SEZ6L2 (NS): −0.7768
logFC SHANK1 (NS): −1.292
logFC SHISAL1 (NS): −1.498
logFC SHISAL2A (NS): −1.16
logFC SIDTI (NS): −2.103
logFC SIT1 (NS): −1.927
logFC SLC4A8 (NS): −0.8668
logFC SLC7A14 (NS): −1.705
logFC SLC8A3 (NS): −1.496
logFC SLC17A6 (NS): −2.069
logFC SLC22A15 (NS): −0.9589
logFC SLC22A23 (NS): −1.148
logFC SLC37A1 (NS): −1.052
logFC SLC38A4 (NS): −1.273
logFC SLCO2B1 (NS): −1.491
logFC SLCO5A1 (NS): −1.211
logFC SLITRK1 (NS): −1.312
logFC SMAP2 (NS): −0.8196
logFC SMPD3 (NS): −1.445
logFC SNAP91 (NS): −1.605
logFC SNCB (NS): −1.524
logFC SNCG (NS): −1.396
logFC SNPH (NS): −1.134
logFC SNTG1 (NS): −2.048
logFC SPNS2 (NS): −1.211
logFC SPTBN4 (NS): −1.122
logFC SRRM3 (NS): −1.175
logFC SSTR2 (NS): −1.449
logFC ST8SIA2 (NS): −1.153
logFC STK32B (NS): −1.644
logFC STX1B (NS): −0.9907
logFC STXBP1 (NS): −1.033
logFC SV2A (NS): −0.9341
logFC SYN1 (NS): −1.543
logFC SYNGR1 (NS): −0.8271
logFC SYP (NS): −1.709
logFC SYT1 (NS): −1.058
logFC SYT7 (NS): −1.505
logFC SYT13 (NS): −1.444
logFC TAC1 (NS): −1.101
logFC TAFA1 (NS): −2.193
logFC TAGLN3 (NS): −1.002
logFC TANC2 (NS): −0.7278
logFC TBC1D24 (NS): −0.8527
logFC TERF2IP (NS): −0.7455
logFC TH (NS): −1.664
logFC THRB (NS): −2.357
logFC TIMP2 (NS): −0.878
logFC TLCD3B (NS): −1.431
logFC TMEM59L (NS): −0.8819
logFC TMEM121B (NS): −0.8958
logFC TMEM132B (NS): −1.025
logFC TMEM151A (NS): −1.522
logFC TMEM151B (NS): −1.463
logFC TMEM178A (NS): −0.904
logFC TMEM246 (NS): −1.159
logFC TOM1L2 (NS): −0.7199
logFC TP53I11 (NS): −0.8407
logFC TP53INP2 (NS): −1.177
logFC TPPP (NS): −1.04
logFC TRIB2 (NS): −0.7077
logFC TRIM9 (NS): −1.352
logFC TSPAN7 (NS): −1.098
logFC TSPYL5 (NS): −1.843
logFC TTBK1 (NS): −1.374
logFC TUBB2B (NS): −0.7583
logFC TVP23A (NS): −1.064
logFC VPS26B (NS): −0.6245
logFC VSTM2A (NS): −1.971
logFC VWA5B2 (NS): −1.111
logFC VXN (NS): −1.527
logFC WDR47 (NS): −0.8343
logFC WDR82 (NS): −0.4862
logFC WNK2 (NS): −0.7608
logFC WSB2 (NS): −0.8644
logFC ZC3HAV1L (NS): −2.186
logFC ZDHHC22 (NS): −1.455
logFC ZFP3 (NS): −1.933
logFC ZNF385A (NS): −0.8795
logFC ZNF439 (NS): −2.201
logFC ABCC6 (p<0.01): −0.5461
logFC ADAMTS4 (p<0.01): −0.723
logFC ADAMTS8 (p<0.01): −1.658
logFC ADAMTS15 (p<0.01): −1.743
logFC ADAMTSL1 (p<0.01): −1.46
logFC ADAMTSL2 (p<0.01): −1.833
logFC ALDOC (p<0.01): −0.6635
logFC APOL2 (p<0.01): −0.6452
logFC AQP6 (p<0.01): −1.137
logFC ARHGAP23 (p<0.01): −0.5891
logFC ARHGEF28 (p<0.01): −0.916
logFC ARL17B (p<0.01): −1.232
logFC ASPN (p<0.01): −3.695
logFC BDKRB2 (p<0.01): −1.475
logFC C1R (p<0.01): −1.32
logFC C5orf63 (p<0.01): −1.211
logFC CABP7 (p<0.01): −1.06
logFC CACNA1H (p<0.01): −0.5137
logFC CCDC183 (p<0.01): −0.5281
logFC CCDC187 (p<0.01): −1.023
logFC CCER2 (p<0.01): −0.8431
logFC CD151 (p<0.01): −0.4377
logFC CDKN1C (p<0.01): −0.6211
logFC CEMIP (p<0.01): −2.321
logFC CHST8 (p<0.01): −1.474
logFC COL1A1 (p<0.01): −1.88
logFC COL6A1 (p<0.01): −0.5639
logFC COL8A2 (p<0.01): −2.755
logFC COL15A1 (p<0.01): −2.224
logFC CPA4 (p<0.01): −2.791
logFC CPNE5 (p<0.01): −0.937
logFC CXCL2 (p<0.01): −1.783
logFC CXCL6 (p<0.01): −2.412
logFC CXCL8 (p<0.01): −3.086
logFC DHRS3 (p<0.01): −1.126
logFC DRGX (p<0.01): −4.337
logFC DYRK1B (p<0.01): −0.3984
logFC EFEMP2 (p<0.01): −0.7929
logFC EGFLAM (p<0.01): −1.798
logFC ELN (p<0.01): −2.048
logFC EPHB3 (p<0.01): −0.4956
logFC EYA2 (p<0.01): −0.955
logFC FAM20C (p<0.01): −0.6923
logFC FBLN5 (p<0.01): −1.918
logFC FMOD (p<0.01): −2.269
logFC FNDC5 (p<0.01): −0.7008
logFC FRMPD1 (p<0.01): −2.303
logFC GAA (p<0.01): −0.4856
logFC GALNT14 (p<0.01): −1.152
logFC GLIS2 (p<0.01): −0.5025
logFC GPBAR1 (p<0.01): −0.9131
logFC HCN1 (p<0.01): −2.181
logFC HES6 (p<0.01): −1.04
logFC HMX1 (p<0.01): −1.478
logFC HOXB5 (p<0.01): −2.739
logFC HS3ST2 (p<0.01): −1.228
logFC HS6ST1 (p<0.01): −0.6264
logFC IAH1 (p<0.01): −0.789
logFC IGFBP5 (p<0.01): −0.9814
logFC IL17RC (p<0.01): −0.5333
logFC INHBB (p<0.01): −1.748
logFC INMT (p<0.01): −1.061
logFC IRF2BPL (p<0.01): −0.3835
logFC ISLR (p<0.01): −1.646
logFC ITPRIP (p<0.01): −0.5931
logFC JOSD2 (p<0.01): −0.7377
logFC KCNA1 (p<0.01): −3.416
logFC KCNJ5 (p<0.01): −1.028
logFC KDM4B (p<0.01): −0.331
logFC KHDC1 (p<0.01): −0.7724
logFC KIF26A (p<0.01): −0.5135
logFC KLHL35 (p<0.01): −1.144
logFC LGALS3BP (p<0.01): −0.9602
logFC LOXL1 (p<0.01): −0.6236
logFC LRFN5 (p<0.01): −0.6816
logFC LURAP1L (p<0.01): −1.086
logFC LYPD1 (p<0.01): −0.7703
logFC MAB21L2 (p<0.01): −0.9329
logFC MAFB (p<0.01): −0.573
logFC MCC (p<0.01): −0.8548
logFC MGP (p<0.01): −2.67
logFC MKX (p<0.01): −1.878
logFC MX2 (p<0.01): −1.618
logFC NDUFA4L2 (p<0.01): −0.8379
logFC NFIX (p<0.01): −2.446
logFC NNMT (p<0.01): −2.326
logFC NPR2 (p<0.01): −0.5942
logFC NTNG2 (p<0.01): −1.161
logFC OGFR (p<0.01): −0.318
logFC OLFML2B (p<0.01): −1.03
logFC OPRK1 (p<0.01): −0.939
logFC OPRM1 (p<0.01): −1.985
logFC OPTN (p<0.01): −0.44
logFC OTOG (p<0.01): −1.855
logFC P4HA3 (p<0.01): −2.239
logFC PADI2 (p<0.01): −1.485
logFC PALM (p<0.01): −0.581
logFC PARP10 (p<0.01): −1.041
logFC PENK (p<0.01): −1.977
logFC PHOX2B (p<0.01): −2.192
logFC PIEZO2 (p<0.01): −2.464
logFC PIRT (p<0.01): −3.199
logFC PLAC9 (p<0.01): −1.585
